Test results from patent publication US20040162432A1, “Substituted octahydrophenanthrene compounds and use thereof as NMDA antagonists” (priority 2001, published 2004).

Assays:
[1] = tested on: (+)-MK801 binding site of the ionotropic NMDA receptor; experiment: (3H)-(+)-MK801 receptor binding test on rat brain membrane homogenates; conditions: 10 μmol/l compound; ligand (3H)-(+)-MK801; rat brain membrane homogenate; triplicate batches
Method: The investigations for determining the affinity of the octahydrophenanthrene compounds of the general formula I according to the invention with the (+)-MK801 binding site of the ionotropic NMDA receptor was performed on brain membrane homogenates (homogenate of rat brain without the cerebellum, pons and medulla oblongata of male rats, Wistar strain, Charles River, WIGA GmbH, Sulzbach, Germany) as described in B. M. Baron et al., Journal of Pharmacology and Experimental Therapeutics, vol. 279, pages 62-68, 1996. The corresponding literature description is hereby introduced as a reference and is deemed to be part of the disclosure.
To this end, after separation of the cerebellum, pons and medulla oblongata, freshly prepared rat brains were disrupted for 1 minute with a Polytron homogeniser at 6,000 rpm in 50 mmol/l of tris/HCl (pH 7.7) with ice cooling and were then centrifuged for 15 min at 4° C. and 60,000 g. After decanting off and discarding the supernatant, resuspending the membrane pellet in 50 mmol/l of tris/HCl (pH 7.7) and disrupting it with a homogeniser at 2,000 rpm for 1 minute, centrifuging was again performed for 15 min at 4° C. and 60,000 g. The supernatant was again discarded and the membrane pellet was homogenised in 50 mmol/l of tris/HCl (pH 7.7) (2,000 rpm for 1 minute) and frozen in aliquots at −70° C.
Aliquots were in each case thawed for the receptor binding test and then centrifuged for 15 min at 4° C. and 60,000 g. After decanting off and discarding the supernatant, the membrane pellet was suspended for the binding test with binding test buffer and homogenised (2,000 rpm for 1 minute).
The buffer used for the binding test was a buffer of 5 mmol/l of tris/HCl (pH 7.7), supplemented with 30 μmol/l of glycine and 100 μmol/l of glutamic acid.
The radioactively labelled ligand used was […] of (^3H)-(+)-MK801 ((5R,10S)-(+)-5-methyl-10,11-dihydro-5H-dibenzo(a,d)cyclohepten-5,10-imine). The level of non-specific binding was determined in the presence of 10 μmol/l of non-radioactively labelled (+)-MK801.
were added in concentration series and the displacement of the radioactive ligand from its specific binding on the NMDA receptor was determined. Each of the triplicate batches was incubated for 40 minutes at 25° C. and then harvested by filtration through glass fibre filters (GF/B) in order to determine the radioactive ligand bound to the brain membrane homogenate. The radioactivity retained on the glass fibre filter disk was measured, after addition of scintillating liquid, in the β-counter.
The percentage inhibition of the specific binding of the ligand (^3H)-(+)-MK801 obtained from triplicate batches in the presence of in each case 10 μmol/l of the substituted octahydrophenanthrene compounds of the general formula I is stated in Table 1 and serves as a measure of the affinity of the compounds of the general formula I according to the invention with the (+)-MK801 binding site of the ionotropic NMDA receptor.

[2] = tested on: phenylquinone-induced writhing in mice; experiment: Writhing test in mice (phenylquinone-induced writhing); format: in vivo; conditions: male mice, phenylquinone i.p., writhing counted 5-20 minutes after phenylquinone
Method: The analgesic efficacy of the compounds according to the invention was investigated by phenylquinone-induced writhing in mice, modified after I.C. Hendershot, J. Forsaith in J. Pharmacol. Exp. There. 125, 237-240 (1959). Male mice weighing 25-30 g were used for this purpose. Groups of 10 animals per substance dose received, 1.0 minute after intravenous administration of the substances tested, 0.3 ml/mouse of a 0.02% aqueous solution of phenylquinone (phenylbenzoquinone, Sigma, Deisenhofen; solution prepared with addition of 5% of ethanol and stored in a water bath at 45° C.) administered intraperitoneally. The animals were then placed individually in observation cages. A push button counter was used to record the number of pain-induced stretching movements (writhing reactions=straightening of the torso with stretching of the rear extremities) for 5-20 minutes after phenylquinone administration. The control was provided by animals who received only physiological common salt solution with phenylquinone.
All the substances were tested at the standard dosage of 10 mg/kg. The percentage inhibition (% inhibition) of the writhing reactions by a substance was calculated according to the following formula: [formula]

Compound | Percentage inhibition of (+)-MK801 binding at 10 μM [1] [%] | Percentage inhibition of writhing reaction at 10 mg/kg i.v. [2] [%]
CN(C)CC1CC(C(C)(C)C)CC2c3ccccc3CCC12.Cl (stereo not drawn) [Compound 6, 6-tert-Butyl-8-dimethylaminomethyl-4b,5,6,7,8,8a,9,10-octahydrophenanthrene hydrochloride] | 31 | –
CN(C)CC1CCCC2c3ccc(F)cc3CCC12.Cl (stereo not drawn) [Compound 4, 8-Dimethylaminomethyl-2-fluoro-4b,5,6,7,8,8a,9,10-octahydrophenanthrene hydrochloride] | 36 | –
CN(C)CC1CCCC2c3ccccc3CCC12.Cl (stereo not drawn) [Compound 1, 8-Dimethylaminomethyl-4b,5,6,7,8,8a,9,10-octahydrophenanthrene hydrochloride] | 46 | 74
CN(C)CC1CCCC2c3cc(O)ccc3CCC12.Cl (stereo not drawn) [Compound 3, 8-Dimethylaminomethyl-4b,5,6,7,8,8a,9,10-octahydrophenanthren-3-ol hydrochloride] | 40 | 85
CN(C)CC1CCCC2c3cc(Cl)ccc3CCC12.Cl (stereo not drawn) [Compound 5, 8-Dimethylaminomethyl-3-chloro-4b,5,6,7,8,8a,9,10-octahydrophenanthrene hydrochloride] | 28 | –
COc1ccc2c(c1)C1CCCC(CN(C)C)C1CC2.Cl (stereo not drawn) [Compound 2, 8-Dimethylaminomethyl-3-methoxy-4b,5,6,7,8,8a,9,10-octahydrophenanthrene hydrochloride] | 56 | 75
